Measured values reported in article PMC4554797 (Bioorganic & medicinal chemistry, 2015).
Entries after “also recorded” stand apart in the source; their conditions may differ. Each block holds one compound with its values, some of them ahead of it.

Experiments:
[1] = system: KC/CXCL1; assay: Serum analysis, mouse Bio-Plex 23-Plex panel; assay type: in vivo; details: at necropsy; p<0.05 at 20 mg/kg, p<0.001 at 50-40 mg/kg vs. control
[2] = molecular target: T1, ATX (Homo sapiens, UniProt Q13822); assay: Dilution/dialysis washout experiment, ATX activity by FS-3; assay type: biochemical; details: pre-incubated two minutes, over 1000-fold dilution over approximately one hour
[3] = system: MDA-MB-231, OVCAR-3, SKOV-3 and MeWo cells; assay: Wound healing assay, all cell lines examined; assay type: cell-based, human
[4] = system: MeWo cells; assay: Animal model of melanoma; assay type: in vivo, athymic nude mice; details: for Tumor growth vs. DMF control: 30 mg/kg i.p. three times a week
[5] = system: ATX; assay: Serum analysis, mouse ENPP2 ELISA; assay type: in vivo; details: at necropsy
[6] = molecular target: T1, ATX; assay: ATX Inhibitor Screening Kit, FS-3 hydrolysis; assay type: biochemical; details: for ATX inhibition (in words): dose-response mode, highest test concentration 10 μM
[7] = system: OVCAR-3; assay: Wound healing assay; assay type: cell-based, human; details: OVCAR-3, 5 μM
[8] = system: Melanoma tumors; assay: Tumor specimen analysis; assay type: in vivo, athymic nude mice
[9] = system: MDA-MB-231; assay: Wound healing assay; assay type: cell-based, human; details: MDA-MB-231, 5 μM
[10] = system: multiple cancer cell lines; assay: Cell viability assay; assay type: cell-based, human; details: 48 h; for Effect on cell viability (in words): HT-29, PC-3, MDA-MB-231, MeWo, SB-2, OVCAR-3, SKOV-3
[11] = system: VEGF; assay: Serum analysis, circulating VEGF; assay type: in vivo, mouse; details: data not shown
[12] = system: MeWo; assay: Cell viability assay; assay type: cell-based, human; details: MeWo cells, 48 h, over the concentrations tested

Structure (SMILES): C=C(CCCCCCCCCCCCCCCC)S(=O)(=O)CCC[N+](C)(C)C.[Cl-] [CVS-16, N,N,N-trimethyl-3-(octadec-1-en-2-ylsulfonyl)propan-1-aminium chloride]
Deaths (50 mg/kg group (n=5)): one mouse | Clinical condition of mice (50 mg/kg i.p., 46th day of the study): severely dehydrated | Serum KC/CXCL-1 [1]: significant reduction | ATX inhibition after washout [2]: did not decrease the ATX inhibition | Wound healing (in words) ([3]; 5 μM, 24 h, vs. untreated): inhibited wound healing | Wound closure in combination with LPA ([3]; CVS-16 5 μM combined with LPA (18:1, 1 μM), in most cases): LPA was not able to overcome the inhibition | Tumor volume vs. control ([4]; 20 mg/kg i.p. three times a week): no significant difference | Time over which inhibition of tumor volume was sustained ([4]; 40-50 mg/kg, days after the injection of tumor cells): approximately 53 days | Tumor sizes vs. control ([4]; 50-40 mg/kg i.p. three times a week, day 57 (p<0.05) and day 65 (p<0.001)): achieved statistical significance | Melanoma progression in in vivo tumor model ([4]; dose not given at this place): significantly inhibited melanoma progression | Circulating ATX in serum vs. control ([5]; CVS-16 treated animals, p<0.05): significant reduction | ATX inhibition after short pre-incubation ([6]; pre-incubating ATX with compound for 2 minutes): complete inhibition | Reduction of wound healing [7]: over 75% | Specimens with mixed areas of viable and necrotic endothelial cells ([8]; 20 mg/kg): 50% | Specimens with only viable endothelial cells ([8]; 20 mg/kg): 50% | Percent of necrotic tissue within the tumor ([8]; 40-50 mg/kg, p<0.01 vs. control, p<0.05 vs. 20 mg/kg): significantly more necrosis than control | Ki-67 staining of tumor sections ([8]; data not shown): no significant differences | Reduction of wound healing [9]: over 75% | Concentration range of significant activity on cell viability [10]: 0.5 to 5 µM | Effect on cell viability (in words) [10]: reduced cell viability to some extent | Circulating VEGF vs. controls [11]: did not observe any change

Structure (SMILES): O=C1S/C(=C\c2ccc(OCc3cccc(B(O)O)c3)cc2)C(=O)N1Cc1ccc(F)cc1 [HA-130, reference compound]
Tumor growth vs. DMF control [4]: neither of these ATX inhibitors reached statistical significance; also recorded: did not impact tumor progression | Circulating ATX in serum vs. control ([5]; 30 mg/kg): no significant difference

Structure (SMILES): O=C(CCN1CCN(C(=O)OCc2cc(Cl)cc(Cl)c2)CC1)c1ccc2[nH]c(=O)oc2c1 [PF-8380, reference compound]
Tumor growth vs. DMF control [4]: neither of these ATX inhibitors reached statistical significance; also recorded: did not impact tumor progression | Circulating ATX in serum vs. control ([5]; 30 mg/kg): no significant difference

ATX inhibition after washout [2]: no evidence of inhibiting ATX activity | ATX inhibition (in words) [6]: did not inhibit ATX | ATX inhibition (in words) ([6]; listed as PVS-16 (21)): no binding effect
Structure (SMILES): C=C(CCCCCCCCCCCCCCCC)S(=O)(=O)c1ccccc1 [PVS-16]
Effect on cell viability (in words) [10]: little effect on cell viability | Effect on cell viability (in words) ([10]; listed as PVS-16 (21)): most cell types were unaffected

Structure (SMILES): CN(C)/N=N/c1[nH]cnc1C(N)=O [dacarbazine]
Cell viability reached [12]: ≥ 50%

Structure (SMILES): CC(=O)O[C@H]1C(=O)[C@@]2(C)[C@H]([C@H](OC(=O)c3ccccc3)[C@]3(O)C[C@H](OC(=O)[C@H](O)[C@@H](NC(=O)c4ccccc4)c4ccccc4)C(C)=C1C3(C)C)[C@]1(OC(C)=O)CO[C@@H]1C[C@@H]2O [paclitaxel]
Cell viability reached [12]: ≥ 50%

Structure (SMILES): CC[C@]1(O)C[C@H]2CN(CCc3c([nH]c4ccccc34)[C@@](C(=O)OC)(c3cc4c(cc3OC)N(C=O)[C@H]3[C@@](O)(C(=O)OC)[C@H](OC(C)=O)[C@]5(CC)C=CCN6CC[C@]43[C@@H]65)C2)C1 [vincristine]
Cell viability reached [12]: ≥ 50%
